Experimental data from patent US11957652B2, “Compositions comprising citrulline and leucine and their use in the treatment of diabetes and metabolic syndrome” (SOCIÉTÉ DES PRODUITS NESTLÉ S.A., priority 2013, dated 2024).

Test system: rats fed a high fat diet
Test: Fasting glucose and insulin plasma levels in rats fed a high fat diet
Assay type: in vivo, rat
Settings: rats on high fat diet, 1 g/kg daily of citrulline or leucine, or 1.0 g/kg leucine and 1.0 g/kg citrulline; for fasting plasma glucose levels (glycemia): compared to high fat diet alone (FIG. 1); for fasting insulin plasma levels (insulinemia): compared to high fat diet alone and to chow-fed healthy rats (FIG. 2)
Protocol: Compositions comprising citrulline, leucine, or […] were tested for their effect on fasting glucose levels and insulin plasma levels. Briefly, rats were split into six groups and fed either chow, a high fat diet, a high fat diet with 1 g/kg leucine daily, a high fat diet with 0.2 g/kg citrulline, a high fat diet with 1 g/kg citrulline daily or a high fat diet with a composition comprising 1.0 g/kg leucine and 1.0 g/kg citrulline.

SMILES | fasting plasma glucose levels (glycemia) | fasting insulin plasma levels (insulinemia)
NC(=O)NCCC[C@H](N)C(=O)O [citrulline] | decrease | decrease
CC(C)C[C@H](N)C(=O)O [leucine] | decrease | decrease
